Reference: ChEMBL document CHEMBL1147434, “Synthesis and biological results of the technetium-99m-labeled 4-nitroimidazole for imaging tumor hypoxia” (Bioorg Med Chem Lett, 2004)

Key:
Type in all cases: ADME, organism-based
Mus musculus [1] = assay: In vivo biodistribution of radiolabeled [99mTc]N4IPA in mice tumor bearing S180 tumor cell line for 8 hours; details: ccrf s-180, 8 h
Mus musculus [2] = assay: In vivo biodistribution of radiolabeled [99mTc]N4IPA in mice kidney bearing S180 tumor cell line for 2 hours; details: ccrf s-180, 2 h
Mus musculus [3] = assay: In vivo biodistribution of radiolabeled [99mTc]N4IPA in mice tumor/blood bearing S180 tumor cell line for 30 minutes; details: ccrf s-180, 0.5 h
Mus musculus [4] = assay: In vivo biodistribution of radiolabeled [99mTc]-N4IPA in mice lung bearing S180 tumor cell line for 2 hours; details: ccrf s-180, 2 h
Mus musculus [5] = assay: In vivo biodistribution of radiolabeled [99mTc]-N4IPA in mice tumor/liver bearing S180 tumor cell line for 4 hours; details: ccrf s-180, 4 h
Mus musculus [6] = assay: In vivo biodistribution of radiolabeled [99mTc]-N4IPA in mice lung bearing S180 tumor cell line for 4 hours; details: ccrf s-180, 4 h
Mus musculus [7] = assay: In vivo biodistribution of radiolabeled [99mTc]N4IPA in mice spleen bearing S180 tumor cell line for 1 hour; details: ccrf s-180, 1 h
Mus musculus [8] = assay: In vivo biodistribution of radiolabeled [99mTc]N4IPA in mice heart bearing S180 tumor cell line for 8 hours; details: ccrf s-180, 8 h
Mus musculus [9] = assay: In vivo biodistribution of radiolabeled [99mTc]N4IPA in mice tumor/muscle bearing S180 tumor cell line for 30 minutes; details: ccrf s-180, 0.5 h
Mus musculus [10] = assay: In vivo biodistribution of radiolabeled [99mTc]-N4IPA in mice muscle bearing S180 tumor cell line for 1 hour; details: ccrf s-180, 1 h
Mus musculus [11] = assay: In vivo biodistribution of radiolabeled [99mTc]N4IPA in mice heart bearing S180 tumor cell line for 4 hours; details: ccrf s-180, 4 h
Mus musculus [12] = assay: In vivo biodistribution of radiolabeled [99mTc]-N4IPA in mice blood bearing S180 tumor cell line for 30 minutes; details: ccrf s-180, 0.5 h
Mus musculus [13] = assay: In vivo biodistribution of radiolabeled [99mTc]-N4IPA in mice tumor/liver bearing S180 tumor cell line for 1 hour; details: ccrf s-180, 1 h
Mus musculus [14] = assay: In vivo biodistribution of radiolabeled [99mTc]-N4IPA in mice tumor/heart bearing S180 tumor cell line for 30 minutes; details: ccrf s-180, 0.5 h
Mus musculus [15] = assay: In vivo biodistribution of radiolabeled [99mTc]N4IPA in mice brain bearing S180 tumor cell line for 4 hours; details: ccrf s-180, 4 h
Mus musculus [16] = assay: In vivo biodistribution of radiolabeled [99mTc]N4IPA in mice tumor/liver bearing S180 tumor cell line for 2 hours; details: ccrf s-180, 2 h
Mus musculus [17] = assay: In vivo biodistribution of radiolabeled [99mTc]-N4IPA in mice kidney bearing S180 tumor cell line for 30 minutes; details: ccrf s-180, 0.5 h
Mus musculus [18] = assay: In vivo biodistribution of radiolabeled [99mTc]-N4IPA in mice tumor/muscle bearing S180 tumor cell line for 2 hours; details: ccrf s-180, 2 h
Mus musculus [19] = assay: In vivo biodistribution of radiolabeled [99mTc]N4IPA in mice liver bearing S180 tumor cell line for 8 hours; details: ccrf s-180, 8 h
Mus musculus [20] = assay: In vivo biodistribution of radiolabeled [99mTc]-N4IPA in mice liver bearing S180 tumor cell line for 4 hours; details: ccrf s-180, 4 h
Mus musculus [21] = assay: In vivo biodistribution of radiolabeled [99mTc]N4IPA in mice kidney bearing S180 tumor cell line for 1 hour; details: ccrf s-180, 1 h
Mus musculus [22] = assay: In vivo biodistribution of radiolabeled [99mTc]-N4IPA in mice kidney bearing S180 tumor cell line for 4 hours; details: ccrf s-180, 4 h
Mus musculus [23] = assay: In vivo biodistribution of radiolabeled [99mTc]-N4IPA in mice spleen bearing S180 tumor cell line for 30 minutes; details: ccrf s-180, 0.5 h
Mus musculus [24] = assay: In vivo biodistribution of radiolabeled [99mTc]-N4IPA in mice tumor/lung bearing S180 tumor cell line for 1 hour; details: ccrf s-180, 1 h
Mus musculus [25] = assay: In vivo biodistribution of radiolabeled [99mTc]N4IPA in mice liver bearing S180 tumor cell line for 1 hour; details: ccrf s-180, 1 h
Mus musculus [26] = assay: In vivo biodistribution of radiolabeled [99mTc]-N4IPA in mice heart bearing S180 tumor cell line for 30 minutes; details: ccrf s-180, 0.5 h
Mus musculus [27] = assay: In vivo biodistribution of radiolabeled [99mTc]-N4IPA in mice tumor/lung bearing S180 tumor cell line for 4 hours; details: ccrf s-180, 4 h
Mus musculus [28] = assay: In vivo biodistribution of radiolabeled [99mTc]N4IPA in mice muscle bearing S180 tumor cell line for 2 hours; details: ccrf s-180, 2 h
Mus musculus [29] = assay: In vivo biodistribution of radiolabeled [99mTc]-N4IPA in mice tumor bearing S180 tumor cell line for 4 hours; details: ccrf s-180, 4 h
Mus musculus [30] = assay: In vivo biodistribution of radiolabeled [99mTc]N4IPA in mice tumor/liver bearing S180 tumor cell line for 30 minutes; details: ccrf s-180, 0.5 h
Mus musculus [31] = assay: In vivo biodistribution of radiolabeled [99mTc]-N4IPA in mice tumor/muscle bearing S180 tumor cell line for 4 hours; details: ccrf s-180, 4 h
Mus musculus [32] = assay: In vivo biodistribution of radiolabeled [99mTc]N4IPA in mice tumor/blood bearing S180 tumor cell line for 4 hours; details: ccrf s-180, 4 h
Mus musculus [33] = assay: In vivo biodistribution of radiolabeled [99mTc]-N4IPA in mice liver bearing S180 tumor cell line for 30 minutes; details: ccrf s-180, 0.5 h
Mus musculus [34] = assay: In vivo biodistribution of radiolabeled [99mTc]N4IPA in mice brain bearing S180 tumor cell line for 8 hours; details: ccrf s-180, 8 h
Mus musculus [35] = assay: In vivo biodistribution of radiolabeled [99mTc]N4IPA in mice tumor/muscle bearing S180 tumor cell line for 1 hour; details: ccrf s-180, 1 h

- Biodistribution (Mus musculus [1]): 0.32 % g-1
- Biodistribution (Mus musculus [2]): 3.8 % g-1
- Biodistribution (Mus musculus [3]): 0.78 % g-1
- Biodistribution (Mus musculus [4]): 0.17 % g-1
- Biodistribution (Mus musculus [5]): 0.88 % g-1
- Biodistribution (Mus musculus [6]): 0.12 % g-1
- Biodistribution (Mus musculus [7]): 0.1 % g-1
- Biodistribution (Mus musculus [8]): 0.06 % g-1
- Biodistribution (Mus musculus [9]): 3.66 % g-1
- Biodistribution (Mus musculus [10]): 0.11 % g-1
- Biodistribution (Mus musculus [11]): 0.08 % g-1
- Biodistribution (Mus musculus [12]): 0.7 % g-1
- Biodistribution (Mus musculus [13]): 0.57 % g-1
- Biodistribution (Mus musculus [14]): 2.31 % g-1
- Biodistribution (Mus musculus [15]): 0.04 % g-1
- Biodistribution (Mus musculus [16]): 0.85 % g-1
- Biodistribution (Mus musculus [17]): 5.63 % g-1
- Biodistribution (Mus musculus [18]): 8.12 % g-1
- Biodistribution (Mus musculus [19]): 0.23 % g-1
- Biodistribution (Mus musculus [20]): 0.39 % g-1
- Biodistribution (Mus musculus [21]): 5.44 % g-1
- Biodistribution (Mus musculus [22]): 3.14 % g-1
- Biodistribution (Mus musculus [23]): 0.13 % g-1
- Biodistribution (Mus musculus [24]): 2.06 % g-1
- Biodistribution (Mus musculus [25]): 0.79 % g-1
- Biodistribution (Mus musculus [26]): 0.24 % g-1
- Biodistribution (Mus musculus [27]): 2.94 % g-1
- Biodistribution (Mus musculus [28]): 0.05 % g-1
- Biodistribution (Mus musculus [29]): 0.34 % g-1
- Biodistribution (Mus musculus [30]): 0.56 % g-1
- Biodistribution (Mus musculus [31]): 8.6 % g-1
- Biodistribution (Mus musculus [32]): 1.88 % g-1
- Biodistribution (Mus musculus [33]): 0.98 % g-1
- Biodistribution (Mus musculus [34]): 0.04 % g-1
- Biodistribution (Mus musculus [35]): 4.25 % g-1
Compound: N/C(CCn1cnc([N+](=O)[O-])c1)=N\O
